Data: patent US10759812B2, “Thienopyrimidine derivative and use thereof in medicine” (SUNSHINE LAKE PHARMA CO., LTD., priority 2017, dated 2020)

Experiments:
[1] = target: ACC1 (Homo sapiens (Human), UniProt Q13085); assay: Acetyl-CoA carboxylase inhibition activity assay in vitro (ADP-Glo kinase assay), ACC1; type: biochemical; settings: 1 nM ACC1, 5% DMSO, 25° C.
Procedure: (§1) The inhibitory action of the compounds against ACC1 or ACC2 was determined by using ADP-Clo™ kinase assay kit from Promega. The ADP-Glo™ Kinase Assay is a luminescent ADP detection assay to measure enzymatic activity by quantifying the amount of ADP produced during an enzyme reaction. The assay is performed in two steps; first, after the enzyme reaction, an equal volume of ADP-Glo™ Reagent is added to terminate the reaction and deplete the remaining ATP. Second, the Kinase Detection Reagent is added to simultaneously convert ADP to ATP and allow the newly synthesized ATP to be measured using a luciferase/luciferin reaction. Luminescence can be correlated to ADP concentrations by using an ATP-to-ADP conversion curve.
(§2) The detailed procedure is as follows. • a. 4.5 μL/well of ACC1/ACC2 working solution (2.22 nM) was added to a 384-well reaction plate (PerkinElmer, 6007290). • b. The compound (10 mM) was diluted with 100% DMSO 500 times to a concentration of 20 μM, the dilute compound solution was diluted 1:3 in succession in a 384-well dilution plate (3657, corning) to gradient concentrations of 20, 6.67, 2.22, 0.74, 0.25, 0.082, 0.027, 0.009, 0.003, 0.001, 0 μM; • c. 0.5 μL/well of the compound solution (prepared in step b) was added to the 384-well reaction plate (prepared in step a), the plate was centrifuged at 1000 rpm and incubated at 25° C. for 15 minutes; • d. 0.5 μL/well of substrate mixture (ATP (10 mM), Acetyl-CoA (2 mM), NaHCO3 (1000 mM)) was transfered into the 384-well reaction plate, the plate was centrifuged at 1000 rpm and incubated at 25° C. for 30 minutes. The compound final gradient concentrations in the reaction system were 1000, 333.3, 111.1, 37.04, 12.35, 4.12, 1.37, 0.46, 0.15, 0.05, 0 nM. The final concentration of DMSO was 5%; the final concentration of ACC1/ACC2 is 1 nM. • e. 10 μL/well of ADP-Glo solution was transfered into the 384-well reaction plate, the plate was centrifuged at 1000 rpm and incubated at 25° C. for 40 minutes. • f. 20 µL/well of kinase detection reagent was transfered into the 384-well reaction plate, the plate was centrifuged at 1000 rpm and incubated at 25° C. for 40 minutes. • g. Relative Light Units (RLU) was read on an Envision multifunction plate reader. The signal intensity represents the level of ACC1/ACC2 kinase activity.
(§3) The ACC1/ACC2 working solution, substrate mixture, ADP-Glo solution and kinase detection reagent used in the assay are all prepared by using 1× kinase reaction buffer [hydroxyethylpiperazineethanesulfonic acid (HEPES, 50 mM), MgCl2 (2 mM), lauryl polyglycol ether (BRIJ-35, 0.01%), potassium citrate (2 mM), bovine serum albumin (BSA, 50 μg/mL), dithiothreitol (DTT, 2 mM)].
(§4) Data for each concentration, as well as the positive and negative controls were averaged, and the standard deviation was calculated. Percent inhibition was calculated by the formula: 100×(average negative control−compound)/(average negative control−average positive control). The IC50 for each compound was calculated by fitting the data with a nonlinear regression equation: Y=Bottom+(Top−Bottom)/(1+10^((Log IC50−X)×HillSlope)), where X is the log of compound concentration and Y is percent inhibition. 0.1 μM ND-630 was as positive control in the assay.

[2] = target: ACC2 (Homo sapiens (Human), UniProt O00763); assay: Acetyl-CoA carboxylase inhibition activity assay in vitro (ADP-Glo kinase assay), ACC2; type: biochemical; settings: 1 nM ACC2, 5% DMSO, 25° C.
Procedure: as §1, §2, §3, §4

Chain of ACC2 (O00763 whole entry, species assumed): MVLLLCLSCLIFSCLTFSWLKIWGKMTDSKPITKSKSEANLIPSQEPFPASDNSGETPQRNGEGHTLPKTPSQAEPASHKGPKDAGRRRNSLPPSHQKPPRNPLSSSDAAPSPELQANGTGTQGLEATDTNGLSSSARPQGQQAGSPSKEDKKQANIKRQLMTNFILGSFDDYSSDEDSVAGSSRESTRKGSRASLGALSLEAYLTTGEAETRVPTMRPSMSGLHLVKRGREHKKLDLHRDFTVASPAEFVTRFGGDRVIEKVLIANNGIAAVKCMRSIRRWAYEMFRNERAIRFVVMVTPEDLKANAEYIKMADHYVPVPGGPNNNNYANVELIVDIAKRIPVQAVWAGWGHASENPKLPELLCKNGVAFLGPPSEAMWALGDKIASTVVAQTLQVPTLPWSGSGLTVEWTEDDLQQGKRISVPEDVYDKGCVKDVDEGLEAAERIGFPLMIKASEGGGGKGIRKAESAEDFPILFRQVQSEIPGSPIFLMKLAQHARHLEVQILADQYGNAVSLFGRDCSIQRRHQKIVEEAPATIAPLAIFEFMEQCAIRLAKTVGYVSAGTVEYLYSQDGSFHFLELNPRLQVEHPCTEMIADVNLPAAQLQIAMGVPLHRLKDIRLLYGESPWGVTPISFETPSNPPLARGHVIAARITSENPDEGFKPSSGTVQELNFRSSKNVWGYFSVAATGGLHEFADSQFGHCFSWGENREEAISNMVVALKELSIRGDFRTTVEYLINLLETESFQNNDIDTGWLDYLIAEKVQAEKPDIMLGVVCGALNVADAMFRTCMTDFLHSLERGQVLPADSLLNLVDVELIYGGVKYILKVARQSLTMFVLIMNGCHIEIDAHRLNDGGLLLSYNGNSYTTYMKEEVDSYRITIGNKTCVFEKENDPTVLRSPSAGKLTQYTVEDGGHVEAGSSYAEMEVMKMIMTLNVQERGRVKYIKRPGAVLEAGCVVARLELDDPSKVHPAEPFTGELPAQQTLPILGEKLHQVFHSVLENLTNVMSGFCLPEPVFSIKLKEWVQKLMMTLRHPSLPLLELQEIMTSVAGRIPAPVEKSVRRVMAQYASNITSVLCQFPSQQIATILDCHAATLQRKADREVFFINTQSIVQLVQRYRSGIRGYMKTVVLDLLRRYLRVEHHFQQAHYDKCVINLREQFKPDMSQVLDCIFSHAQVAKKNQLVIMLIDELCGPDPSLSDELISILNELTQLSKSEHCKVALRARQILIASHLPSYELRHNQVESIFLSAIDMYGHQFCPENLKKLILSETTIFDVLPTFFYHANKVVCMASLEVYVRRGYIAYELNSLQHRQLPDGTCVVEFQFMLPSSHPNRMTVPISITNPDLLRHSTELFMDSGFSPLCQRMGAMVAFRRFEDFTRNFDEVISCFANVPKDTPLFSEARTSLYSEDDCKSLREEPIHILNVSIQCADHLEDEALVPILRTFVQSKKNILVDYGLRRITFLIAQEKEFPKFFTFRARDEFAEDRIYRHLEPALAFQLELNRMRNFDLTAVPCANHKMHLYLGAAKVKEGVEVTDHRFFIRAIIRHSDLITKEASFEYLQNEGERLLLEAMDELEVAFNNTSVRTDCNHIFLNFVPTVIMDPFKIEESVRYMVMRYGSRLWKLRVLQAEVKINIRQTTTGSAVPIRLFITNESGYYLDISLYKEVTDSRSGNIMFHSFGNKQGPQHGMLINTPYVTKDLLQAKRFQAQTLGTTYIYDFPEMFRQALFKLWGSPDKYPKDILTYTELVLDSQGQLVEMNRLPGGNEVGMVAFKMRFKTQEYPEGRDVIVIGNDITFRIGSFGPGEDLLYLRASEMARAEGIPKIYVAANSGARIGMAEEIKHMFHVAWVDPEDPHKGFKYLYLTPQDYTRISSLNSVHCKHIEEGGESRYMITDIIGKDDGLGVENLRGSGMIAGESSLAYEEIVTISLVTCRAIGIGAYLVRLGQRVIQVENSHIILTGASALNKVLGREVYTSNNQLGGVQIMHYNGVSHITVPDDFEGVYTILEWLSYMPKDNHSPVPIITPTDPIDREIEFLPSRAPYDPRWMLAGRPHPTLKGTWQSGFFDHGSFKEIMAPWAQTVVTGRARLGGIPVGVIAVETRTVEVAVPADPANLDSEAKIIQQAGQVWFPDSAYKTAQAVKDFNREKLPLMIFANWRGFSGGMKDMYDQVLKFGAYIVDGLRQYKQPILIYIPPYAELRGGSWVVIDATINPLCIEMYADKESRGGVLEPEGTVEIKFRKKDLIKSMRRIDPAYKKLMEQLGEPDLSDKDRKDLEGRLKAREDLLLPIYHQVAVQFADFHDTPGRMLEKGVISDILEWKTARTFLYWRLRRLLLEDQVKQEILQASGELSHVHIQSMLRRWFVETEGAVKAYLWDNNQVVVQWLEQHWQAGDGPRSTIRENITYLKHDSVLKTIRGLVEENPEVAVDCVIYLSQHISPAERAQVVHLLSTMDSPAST

SMILES	IC50 [1] [nM]	IC50 [2] [nM]
COc1ccccc1C(Cn1c(=O)n(C(C)(C)C(=O)O)c(=O)c2c(C)c(-c3ncco3)sc21)O[C@H]1C[C@H]2C[C@@H](O)C[C@H]2C1 (stereo partly drawn) [Example 1, 2-[1-[2-[[(3aS,6aR)-5-hydroxy-1,2,3,3a,4,5,6,6a-octahydropentalen-2-yl]oxy]-2-(2-methoxyphenyl)ethyl]-5-methyl-6-oxazol-2-yl-2,4-dioxo-thieno[2,3-d]pyrimid-3-yl]-2-methyl-propanoic acid]	0.93	–
COc1ccccc1C(Cn1c(=O)n(C(C)(C)C(=O)O)c(=O)c2c(C)c(-c3ncco3)sc21)O[C@@H]1C[C@@H]2CC(O)(C3CC3)C[C@@H]2C1 (stereo partly drawn) [Example 23, 2-[1-[2-[[(3aR,6aS)-5-cyclopropyl-5-hydroxy-2,3,3a,4,6,6a-hexahydro-1H-pentalen-2-yl]oxy]-2-(2-methoxyphenyl)ethyl]-5-methyl-6-oxazol-2-yl-2,4-dioxo-thieno[2,3-d]pyrimid-3-yl]-2-methyl-propanoic acid]	0.67	1.13
COc1ccccc1C(Cn1c(=O)n(C(C)(C)C(=O)O)c(=O)c2c(C)c(-c3ncco3)sc21)O[C@H]1C[C@H]2CC(O)C(O)[C@H]2C1 (stereo partly drawn) [Example 22, 2-[1-[2-[[(2S,3aS,6aR)-4,5-dihydroxy-1,2,3,3a,4,5,6,6a-octahydropentalen-2-yl]oxy]-2-(2-methoxyphenyl)ethyl]-5-methyl-6-oxazol-2-yl-2,4-dioxo-thieno[2,3-d]pyrimid-3-yl]-2-methyl-propanoic acid]	1.55	8.44
COc1ccccc1C(Cn1c(=O)n(C(C)(C)C(=O)O)c(=O)c2c(C)c(-c3ncco3)sc21)O[C@@H]1C[C@@H]2CC(O)(C(F)(F)F)C[C@@H]2C1 (stereo partly drawn) [Example 18, 2-[1-[2-[[(3aR,6aS)-5-hydroxy-5-(trifluoromethyl)-2,3,3a,4,6,6a-hexahydro-1H-pentalen-2-yl]oxy]-2-(2-methoxyphenyl)ethyl]-5-methyl-6-oxazol-2-yl-2,4-dioxo-thieno[2,3-d]pyrimid-3-yl]-2-methyl-propanoic acid]	0.89	–
COc1ccccc1C(Cn1c(=O)n(C(C)(C)C(=O)O)c(=O)c2c(C)c(-c3ncco3)sc21)O[C@@H]1C[C@@H]2CC(C)(O)C[C@@H]2C1 (stereo partly drawn) [Example 14, 2-[1-[2-[[(3aR,6aS)-5-hydroxy-5-methyl-2,3,3a,4,6,6a-hexahydro-1H-pentalen-2-yl]oxy]-2-(2-methoxyphenyl)ethyl]-5-methyl-6-oxazol-2-yl-2,4-dioxo-thieno[2,3-d]pyrimid-3-yl]-2-methyl-propanoic acid]	1.43	–
COc1ccccc1C(Cn1c(=O)n(C(C)(C)C(=O)O)c(=O)c2c(C)c(-c3ncco3)sc21)O[C@@H]1C[C@@H]2CC(O)(C#N)C[C@@H]2C1 (stereo partly drawn) [Example 26, 2-[1-[2-[[(3aR,6aS)-5-cyano-5-hydroxy-2,3,3a,4,6,6a-hexahydro-1H-pentalen-2-yl]oxy]-2-(2-methoxyphenyl)ethyl]-5-methyl-6-oxazol-2-yl-2,4-dioxo-thieno[2,3-d]pyrimid-3-yl]-2-methyl-propanoic acid]	1.43	5.4
CCC1(O)C[C@H]2C[C@@H](OC(Cn3c(=O)n(C(C)(C)C(=O)O)c(=O)c4c(C)c(-c5ncco5)sc43)c3ccccc3OC)C[C@H]2C1 (stereo partly drawn) [Example 19, 2-[1-[2-[[(3aR,6aS)-5-ethyl-5-hydroxy-2,3,3a,4,6,6a-hexahydro-1H-pentalen-2-yl]oxy]-2-(2-methoxyphenyl)ethyl)-5-methyl-6-oxazol-2-yl-2,4-dioxo-thieno[2,3-d]pyrimid-3-yl]-2-methyl-propanoic acid]	0.88	5.45
COc1ccccc1C(Cn1c(=O)n(C(C)(C)C(=O)O)c(=O)c2c(C)c(-c3ncco3)sc21)O[C@H]1C[C@H]2CC(C#N)C[C@H]2C1 (some centres unmarked) [Example 15, 2-[1-[2-[(5-cyano-1,2,3,3a,4,5,6,6a-octahydropentalen-2-yl)oxy]-2-(2-methoxyphenyl)ethyl]-5-methyl-6-oxazol-2-yl-2,4-dioxo-thieno[2,3-d]pyrimid-3-yl]-2-methyl-propanoic acid]	1.64	6.53
COc1ccccc1C(Cn1c(=O)n(C(C)(C)C(=O)O)c(=O)c2c(C)c(-c3ncco3)sc21)OC1CC2COCC2C1 (centres unmarked) [Example 13, 2-[1-[2-(3,3a,4,5,6,6a-hexahydro-1H-cyclopenteno[c]furan5-oxy)-2-(2-methoxyphenyl)ethyl)-5-methyl-6-oxazol-2-yl-2,4-dioxo-thieno[2,3-d]pyrimid-3-yl]-2-methyl-propanoic acid]	1.76	4.24
COc1ccccc1C(Cn1c(=O)n(C(C)(C)C(=O)O)c(=O)c2c(C)c(-c3ncco3)sc21)OC1CC2CN(S(C)(=O)=O)CC2C1 (centres unmarked) [Example 10, 2-[1-[2-(2-methoxyphenyl)-2-[(2-methylsulfonyl-3,3a,4,5,6,6a-hexahydro-1H-cyclopenteno[c]pyrrole-5-yl)oxy]ethyl]-5-methyl-6-oxazol-2-yl-2,4-dioxo-thieno[2,3-d]pyrimid-3-yl]-2-methyl-propanoic acid]	0.81	1.76
COc1ccccc1C(Cn1c(=O)n(C(C)(C)C(=O)O)c(=O)c2c(C)c(-c3ncco3)sc21)O[C@@H]1C[C@@H]2CC(O)(CC#N)C[C@@H]2C1 (stereo partly drawn) [Example 27, 2-[1-[2-[[(3aS,6aR)-5-(cyanomethyl)-5-hydroxy-2,3,3a,4,6,6a-hexahydro-1H-pentalen-2-yl]oxy]-2-(2-methoxyphenyl)ethyl]-5-methyl-6-oxazol-2-yl-2,4-dioxo-thieno[2,3-d]pyrimid-3-yl]-2-methyl-propanoic acid]	1.56	4.8
COc1ccccc1C(Cn1c(=O)n(C(C)(C)C(=O)O)c(=O)c2c(C)c(-c3ncco3)sc21)O[C@H]1C[C@H]2C[C@H](F)C[C@H]2C1 (stereo partly drawn) [Example 17, 2-[1-[2-[[(3aR,6aS)-5-fluoro-1,2,3,3a,4,5,6,6a-octahydropentalen-2-yl]oxy]-2-(2-methoxyphenyl)ethyl)-5-methyl-6-oxazol-2-yl-2,4-dioxo-thieno[2,3-d]pyrimid-3-yl]-2-methyl-propanoic acid]	2.24	–
COc1ccccc1C(Cn1c(=O)n(C(C)(C)C(=O)O)c(=O)c2c(C)c(-c3ncco3)sc21)O[C@@H]1C[C@@H]2CC(F)(F)C[C@@H]2C1 (stereo partly drawn) [Example 21, 2-[1-[2-[[(3aR,6aS)-5,5-difluoro-2,3,3a,4,6,6a-hexahydro-1H-pentalen-2-yl]oxy]-2-(2-methoxyphenyl)ethyl)-5-methyl-6-oxazol-2-yl-2,4-dioxo-thieno[2,3-d]pyrimid-3-yl]-2-methyl-propanoic acid]	1.43	4.07
COc1ccccc1C(Cn1c(=O)n(C(C)(C)C(=O)O)c(=O)c2c(C)c(-c3ncco3)sc21)O[C@H]1C[C@H]2CO[C@@H](C1)O2 (some centres unmarked) [Example 32]	1.21	2.74
COc1ccccc1C(Cn1c(=O)n(C(C)(C)C(=O)O)c(=O)c2c(C)c(-c3ncco3)sc21)O[C@@H]1C[C@@H]2C[C@@H](S(C)(=O)=O)C[C@@H]2C1 (stereo partly drawn) [Example 29, 2-[1-[2-[[(3aR,6aS)-5-methylsulfonyl-1,2,3,3a,4,5,6,6a-octahydropentalen-2-yl]oxy]-2-(2-methoxyphenyl)ethyl]-5-methyl-6-oxazol-2-yl-2,4-dioxo-thieno[2,3-d]pyrimid-3-yl]-2-methyl-propanoic acid]	0.47	2.19
